Assay [1] deals with T1, L-lactate dehydrogenase A chain (Homo sapiens, UniProt P00338). As to the kind of experiment: Inhibition of human LDHA4 using sodium pyruvate as substrate assessed as NADH oxidation at 125 uM measured every 30 secs for 5 mins by spectrophotometric analysis relative to control.
The target of assay [2] is T1, L-lactate dehydrogenase A chain. Nature of the assay: Competitive inhibition of human LDHA4 using 0.025 to 1 mM sodium pyruvate as substrate measured every 30 secs for 5 mins by Lineweaver-Burk plot analysis in presence of NADH.
For assay [3] the target is unchanged. Nature of the assay: Competitive inhibition of human LDHA4 using sodium pyruvate as substrate measured every 30 secs for 5 mins by Lineweaver-Burk plot analysis in presence of 12.5 to 150 uM NADH.
For assay [4], the species on record is Homo sapiens. Nature of the assay: Inhibition of human LDH1 using sodium pyruvate as substrate assessed as NADH oxidation at 125 uM measured every 30 secs for 5 mins by spectrophotometric analysis relative to control.
Assay [5] in a line: Competitive inhibition of human LDH1 using sodium pyruvate as substrate measured every 30 secs for 5 mins by Lineweaver-Burk plot analysis in presence of 12.5 to 150 uM NADH.

The text below walks through data of ChEMBL document CHEMBL3217557, “Triazole-substituted N-hydroxyindol-2-carboxylates as inhibitors of isoform 5 of human lactate dehydrogenase (hLDH5)” (Medchemcomm, 2011).

For orientation: inhibition means the percentage by which the read-out fell short of the control. The Ki is a dissociation constant, usually derived from enzyme kinetics or from competition with a known ligand.

Bounds are passed on as bounds.

For the molecule `O=C(O)c1cc2ccc(-n3cc(CCCc4cn(-c5ccc6cc(C(=O)O)n(O)c6c5)nn4)nn3)cc2n1O`, the inhibition in assay [1] was 83%; in assay [4] it was 32%. Further, the Ki in assay [2] came to 37 µM; in assay [3], 20 µM.

Turning to `O=C(O)c1cc2c(-n3cc(CCO)nn3)cccc2n1O`, the inhibition in assay [1] is less than 15%.

Turning to `O=C(O)c1cc2cc(-n3cc(-c4ccccc4)nn3)ccc2n1O`, the inhibition in assay [1] was less than 15%.

For `O=C(O)c1cccc(-c2cn(-c3ccc4cc(C(=O)O)n(O)c4c3)nn2)c1`, the inhibition in assay [1] is 65%; in assay [4], less than 3%. Besides, the Ki turned out to be 45 µM in assay [2] and 50 µM in assay [3].

For `CCCCc1cn(-c2cccc3c2cc(C(=O)O)n3O)nn1`, the inhibition in assay [1] was less than 15%.

For the molecule `O=C(O)c1cccc(-c2cn(-c3cccc4c3cc(C(=O)O)n4O)nn2)c1`, the inhibition in assay [1] and in assay [4] was 60% in each case. Besides, the figures for the Ki in assay [2], in assay [3] and in assay [5] were 86 µM, 57 µM and 89 µM, respectively.

For the molecule `O=C(O)c1cccc(-c2cn(-c3ccc4c(c3)cc(C(=O)O)n4O)nn2)c1`, the inhibition in assay [1] was less than 15%.

Turning to `O=C(O)c1cc2c(-n3cc(-c4ccccc4)nn3)cccc2n1O`, the figures for the inhibition in assay [1] and in assay [4] were 73% and less than 3%, respectively. The results for the Ki in assay [2] and in assay [3] were 44 µM and 28 µM, respectively.
